The values that follow come from US20190151341A1, “APPLICATION OF TENVERMECTIN FOR PREVENTING AND TREATING PARASITE INFECTION” (ZHEJIANG HISUN PHARMACEUTICAL CO., LTD., priority 2016, published 2019).

Each structure is given as a SMILES string.

The assay has as its system Sarcoptes mites. The assay can be described thus: Treatment of Sarcoptes mites of sheep (skin scrapings, live mites). As to conditions: 1% injection 0.2 mg/kg bw s.c.; for Negative conversion number: sheep (10 per group); for Negative conversion rate (%): sheep. The assay is classed as in vivo. The text has this: Test agents: 1% ivermectin injection, 1% tenvermectin A injection and 1% tenvermectin B injection as obtained in Example 1.
Test animals and grouping: sheep grazed under the same conditions were selected. Upon parasitological examination, 40 sheep which had been infected with sheep Sarcoptes mites were selected. The 40 sheep were randomly divided into 4 groups, 10 heads for each group. The first group was the ivermectin control group, the second group was the tenvermectin A group, and the third group was the tenvermectin B group. All the medicated groups were injected subcutaneously in the neck according to 0.2 mg/kg·bw. The fourth group was a blank group and was not medicated.
Test methods: the changes of clinical symptoms were observed. The skin of sheep was scratched using a surgical blade with glycerin at the junction of the affected part and the healthy skin of the diseased sheep until the skin slightly bled. The skin scraps were taken then were placed in a dish and brought back to the laboratory. Then the skin scraps were placed on a slide, a drop of aqueous solution of 50% glycerol was added, and a cover slip was covered, and then the skin scraps were checked under a low magnification microscope. It was confirmed to be positive if live Sarcoptes mites were observed. Samples were taken before administration and at 1, 2, 3 and 4 weeks after administration to be examined. The samples were examined under a microscope, based on whether live mites were observed, the samples can be determined to be positive as long as one live mite was observed. Changes of clinical symptoms were observed as references.

On to `CC[C@H]1O[C@]2(CC[C@@H]1C)C[C@@H]1C[C@@H](C/C=C(\C)[C@@H](O[C@H]3C[C@H](OC)[C@@H](O[C@H]4C[C@H](OC)[C@@H](O)[C@H](C)O4)[C@H](C)O3)[C@@H](C)/C=C/C=C3\CO[C@@H]4[C@H](O)C(C)=C[C@@H](C(=O)O1)[C@]34O)O2` [Tenvermectin B, tenvermectin B], for which the Negative conversion number was found to be 9 (1st week), 10 (2nd week), 10 (3rd week) and 10 (4th week). Further, the “Negative conversion rate (%)” value by setting is: (1st week) 90%; (2nd week) 100%; (3rd week) 100%; (4th week) 100%.

On to `COC1CC(OC2C(C)OC(OC3C(C)=CCC4CC(CC5(CCC(C)C(C)O5)O4)OC(=O)C4C=C(C)C(O)C5OCC(=CC=CC3C)C45O)CC2OC)OC(C)C1O` (stereo not shown) [Tenvermectin A, tenvermectin A], for which the Negative conversion number was determined as 8 (1st week), 9 (2nd week), 10 (3rd week) and 10 (4th week). For the same compound, the “Negative conversion rate (%)” value was determined as 80% (1st week), 90% (2nd week), 100% (3rd week) and 100% (4th week).
